Among the test systems are 786-0 renal; CCRF-CEM leukemia; HOP-92 NSCLC; HT29 colon; KM12 colon; LOX IMVI melanoma; SK-MEL-5 melanoma; SN12C renal.
What all share (test): DTP human tumour cell line panel, 48 h

SMILES strings stand for the structures. “And” between values parts separate entries of the source, which are not always exact repeats. Equal values may be shown once.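 Dose response: 5 concentrations. Exposure: 48 h. Format: 96-well plates. Endpoint: linear interpolation; highest concentration if not reached. GI50 marks 50% less growth. TGI: total growth inhibition.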

This passage reports GI50 and TGI results from PubChem BioAssay (NCI).

The GI50 is the concentration at which growth is held to half of that of the control. As usually defined, the TGI is the concentration giving total growth inhibition. Low values mean more potent growth arrest, high ones less potent growth arrest.

As to `COc1ccc(CNC(=O)c2ccc(-c3cc(-c4nnc(C)o4)ccc3C)cc2)cc1`, the GI50 in the experiment with 786-0 renal is > 25 µM; in the experiment with CCRF-CEM leukemia, > 25 µM; in the experiment with HOP-92 NSCLC, 2.11 µM; with HT29 colon, > 25 µM; in the experiment on KM12 colon, > 25 µM; in the experiment with LOX IMVI melanoma, > 25 µM. Moreover, the results for the GI50 with SK-MEL-5 melanoma and with SN12C renal were 6.17 µM and > 25 µM, respectively. In addition, the TGI in the experiment on 786-0 renal, in the experiment on CCRF-CEM leukemia, in the experiment on HOP-92 NSCLC, in the experiment with HT29 colon, in the experiment on KM12 colon and in the experiment on LOX IMVI melanoma was > 25 µM throughout. The TGI is > 19.9 µM in the experiment on SK-MEL-5 melanoma and > 25 µM in the experiment on SN12C renal.
Consider `CCCC(=O)Nc1cn(COC)c(C(=O)N2C[C@H]3C[C@@]34C2=CC(=O)c2[nH]cc(C)c24)n1`, for which the GI50 with 786-0 renal is 1.98 µM; in the experiment with CCRF-CEM leukemia, 0.555 µM; in the experiment on HOP-92 NSCLC, 5.12 µM; with HT29 colon, 12.4 µM; in the experiment with KM12 colon, 8.81 µM; in the experiment on LOX IMVI melanoma, 3.13 µM. Further, the GI50 is 2.53 µM in the experiment with SK-MEL-5 melanoma and 5.55 µM in the experiment with SN12C renal. The TGI is 26.8 µM and 31.4 µM in the experiment on HOP-92 NSCLC; 25.2 µM and > 100 µM in the experiment with HT29 colon; > 100 µM with KM12 colon; 35.4 µM and > 100 µM in the experiment on LOX IMVI melanoma; 16 µM and 9.93 µM in the experiment with SK-MEL-5 melanoma; 42.9 µM and 71.2 µM with SN12C renal.
As to `Cc1cc(C)c2nccc(NCCCN(C)C)c2c1[N+](=O)[O-]`, the TGI is > 100 µM in the experiment with 786-0 renal; > 100 µM in the experiment with CCRF-CEM leukemia; 41.5 µM in the experiment on HT29 colon; > 100 µM with KM12 colon; 51.9 µM in the experiment on LOX IMVI melanoma; 26.6 µM in the experiment with SK-MEL-5 melanoma. In addition, the TGI in the experiment with SN12C renal is > 100 µM.
Regarding `CCCCCCCCCCCCCCCCCCNC(=O)[C@H]1CSC(c2ccc(F)c(OC)c2)N1` (stereo partly drawn), the GI50 was 1.01 µM with 786-0 renal; 0.284 µM with CCRF-CEM leukemia; 1.66 µM in the experiment on HOP-92 NSCLC; 1.03 µM in the experiment on HT29 colon; 0.899 µM in the experiment on KM12 colon; 0.788 µM in the experiment with LOX IMVI melanoma. In addition, the GI50 in the experiment on SK-MEL-5 melanoma was 0.812 µM; in the experiment with SN12C renal, 0.805 µM. For the same compound, the TGI with 786-0 renal came out at 1.91 µM; in the experiment with CCRF-CEM leukemia, 1.74 µM; with HOP-92 NSCLC, 4.61 µM; in the experiment on HT29 colon it was 2.12 µM; in the experiment on KM12 colon, 1.79 µM; in the experiment with LOX IMVI melanoma, 2.07 µM. Further, the TGI in the experiment on SK-MEL-5 melanoma was 1.52 µM; with SN12C renal it was 1.72 µM.
On to `NC(=O)c1c(NC(=O)c2cccc(C(F)(F)F)c2)sc2c1CCC(=O)C2`, for which the GI50 in the experiment with 786-0 renal is 1.94 µM; in the experiment on CCRF-CEM leukemia, 0.163 µM; with HOP-92 NSCLC, 0.985 µM; in the experiment with HT29 colon it was 0.378 µM; with KM12 colon it was 0.394 µM; in the experiment with LOX IMVI melanoma, 0.356 µM. Besides, the GI50 is 1.18 µM with SK-MEL-5 melanoma and 0.392 µM in the experiment with SN12C renal. Moreover, the concentration for total growth inhibition (TGI) was > 100 µM with 786-0 renal; 3.47 µM with HOP-92 NSCLC; > 100 µM with HT29 colon; 2.01 µM in the experiment with KM12 colon; 2.8 µM with LOX IMVI melanoma; 2.95 µM in the experiment on SK-MEL-5 melanoma. For the same compound, the TGI in the experiment with SN12C renal is > 100 µM.
On to `O=C(Nc1cccc(Cl)c1)c1cc(Cl)ccc1O`, for which the GI50 was 1.63 µM in the experiment with 786-0 renal; 2.82 µM in the experiment on CCRF-CEM leukemia; 0.169 µM in the experiment on HOP-92 NSCLC; 2.49 µM in the experiment with HT29 colon; 2.39 µM in the experiment with KM12 colon; 0.543 µM with LOX IMVI melanoma. Further, the GI50 in the experiment on SK-MEL-5 melanoma is 0.274 µM; in the experiment on SN12C renal, 0.491 µM. Besides, the TGI in the experiment with 786-0 renal is 6.18 µM; with CCRF-CEM leukemia, 22 µM; in the experiment on HOP-92 NSCLC, 0.571 µM; with HT29 colon it was 7.12 µM; in the experiment with KM12 colon it was 6.87 µM; with LOX IMVI melanoma, 2.26 µM. Further, the results for the TGI in the experiment with SK-MEL-5 melanoma and in the experiment with SN12C renal were 0.857 µM and 4.15 µM, respectively.
As to `COc1ccc(-c2nc(/C=N/Nc3cc(C)nc4ccc(Br)cc34)c(C)o2)cc1`, the GI50 with 786-0 renal is 1.71 µM; with CCRF-CEM leukemia, 0.732 µM; in the experiment on HOP-92 NSCLC, 1.45 µM; with HT29 colon, 1.62 µM; with KM12 colon it was 1.8 µM; with SK-MEL-5 melanoma it was 1.78 µM. Also, the GI50 with SN12C renal is 1.93 µM. Further, the TGI in the experiment with 786-0 renal was found to be 3.22 µM; in the experiment on CCRF-CEM leukemia it was 3.38 µM; in the experiment with HOP-92 NSCLC, 3.06 µM; in the experiment on HT29 colon, 3.24 µM; in the experiment on KM12 colon, 3.62 µM; in the experiment on SK-MEL-5 melanoma it was 3.18 µM. Moreover, the total growth inhibition concentration (TGI) in the experiment with SN12C renal came to 3.62 µM.
In the case of `O=C(O)C(Cc1c[nH]c2ccccc12)N1C(=O)c2ccccc2C1=O` (stereo not drawn), the concentration for total growth inhibition (TGI) with 786-0 renal, with HOP-92 NSCLC, with HT29 colon, in the experiment on KM12 colon, in the experiment with LOX IMVI melanoma and in the experiment on SK-MEL-5 melanoma was > 100 µM throughout. In the experiment on SN12C renal, the total growth inhibition concentration (TGI) was > 100 µM.
`C/C(=N\O)[C@H]1CC[C@@]2(C)[C@@H]3CC[C@H]4C(C)(C)/C(=N/O)CC[C@@]45CC35CC[C@]12C` (stereo partly drawn): the GI50 was 2.97 µM in the experiment with 786-0 renal; 2.09 µM in the experiment with HOP-92 NSCLC; 5.56 µM in the experiment with HT29 colon; 2.84 µM in the experiment with KM12 colon; 0.759 µM in the experiment with LOX IMVI melanoma; 1.51 µM in the experiment on SK-MEL-5 melanoma. The GI50 in the experiment with SN12C renal is 6.58 µM. Moreover, the concentration for total growth inhibition (TGI) in the experiment on 786-0 renal was 6.85 µM; with HOP-92 NSCLC it was 5.45 µM; with HT29 colon, > 16.7 µM; in the experiment on KM12 colon it was 7.03 µM; in the experiment with LOX IMVI melanoma, 4.1 µM; in the experiment on SK-MEL-5 melanoma, 7.59 µM. Further, the TGI with SN12C renal is > 16.7 µM.
`CCCCCCCCCCCCNC(=O)[C@H]1CSC(c2ccsc2)N1` (stereo partly drawn): the GI50 in the experiment on 786-0 renal was 0.916 µM; in the experiment with HOP-92 NSCLC it was 1.01 µM; in the experiment with HT29 colon it was 0.995 µM; with KM12 colon it was 0.868 µM; with LOX IMVI melanoma it was 0.824 µM; in the experiment on SK-MEL-5 melanoma, 1.36 µM. Moreover, the GI50 in the experiment on SN12C renal was 0.911 µM. The total growth inhibition concentration (TGI) in the experiment with 786-0 renal was determined as 1.65 µM; with HOP-92 NSCLC, 2.02 µM; in the experiment with HT29 colon, 1.83 µM; in the experiment with KM12 colon it was 1.64 µM; with LOX IMVI melanoma, 1.64 µM; in the experiment on SK-MEL-5 melanoma it was 5.22 µM. Besides, the concentration for total growth inhibition (TGI) in the experiment on SN12C renal was 1.64 µM.
Regarding `CC(=O)Nc1ccc2c(c1)CN1C(=O)c3ccccc3C1=N2`, the GI50 in the experiment on 786-0 renal, in the experiment with CCRF-CEM leukemia, in the experiment with HOP-92 NSCLC, with KM12 colon, in the experiment on LOX IMVI melanoma and in the experiment on SK-MEL-5 melanoma was > 100 µM in each case. Besides, the total growth inhibition concentration (TGI) in the experiment on 786-0 renal, in the experiment with CCRF-CEM leukemia, in the experiment on HOP-92 NSCLC, with KM12 colon, in the experiment with LOX IMVI melanoma and with SK-MEL-5 melanoma was > 100 µM in each case.
`COc1ccc(C2NC(=S)NC3=C2COc2ccc(F)cc23)cc1OC` (stereo not drawn): the GI50 in the experiment on 786-0 renal is 28.6 µM; in the experiment with CCRF-CEM leukemia, 93.5 µM; in the experiment on HOP-92 NSCLC, 41.7 µM; with KM12 colon it was 25.9 µM; in the experiment on LOX IMVI melanoma, 13.5 µM; in the experiment on SK-MEL-5 melanoma, 13.5 µM. Besides, in the experiment on SN12C renal, the GI50 was 15.1 µM. Further, the TGI in the experiment on 786-0 renal was > 100 µM; in the experiment on CCRF-CEM leukemia, > 100 µM; with HOP-92 NSCLC it was > 100 µM; in the experiment with KM12 colon, > 100 µM; in the experiment with LOX IMVI melanoma it was 27.6 µM; in the experiment on SK-MEL-5 melanoma it was 30.7 µM. In addition, the concentration for total growth inhibition (TGI) with SN12C renal was 50.1 µM.
Regarding `O=c1c2ccccc2c(=O)c2c1sc1c(=O)c3ccc(O)cc3c(=O)c12`, the GI50 is 1.8 µM in the experiment on 786-0 renal; 2.59 µM in the experiment on CCRF-CEM leukemia; 2.39 µM with HT29 colon; 2.05 µM with KM12 colon; 0.127 µM in the experiment on SK-MEL-5 melanoma; 0.187 µM with SN12C renal. The TGI came to 4.44 µM in the experiment on 786-0 renal; 10.3 µM in the experiment with CCRF-CEM leukemia; 6.01 µM with HT29 colon; 8.24 µM in the experiment on KM12 colon; 0.256 µM in the experiment on SK-MEL-5 melanoma; 0.36 µM in the experiment on SN12C renal.
Regarding `N#CC1=C(N)NC(=S)C(C#N)C12Nc1ccccc1S2` (stereo not drawn), the GI50 in the experiment with 786-0 renal is 25.4 µM; in the experiment on HOP-92 NSCLC, 60.8 µM; with HT29 colon it was 29.3 µM; with KM12 colon, 24.8 µM; in the experiment with LOX IMVI melanoma, 13.5 µM; with SK-MEL-5 melanoma it was 12.8 µM. Also, the GI50 in the experiment on SN12C renal is 14.4 µM. The TGI in the experiment with 786-0 renal is 68.9 µM; in the experiment with HOP-92 NSCLC, > 100 µM; in the experiment on HT29 colon it was 77.7 µM; in the experiment on KM12 colon it was > 100 µM; in the experiment with LOX IMVI melanoma it was 32.6 µM; in the experiment with SK-MEL-5 melanoma it was 26.7 µM. The compound further displayed a total growth inhibition concentration (TGI) in the experiment with SN12C renal of 33.2 µM.
On to `Cc1nnc(N=Nc2c(O)[nH]c3ccccc23)[nH]c1=O`, for which the TGI in the experiment on 786-0 renal, in the experiment on HOP-92 NSCLC, in the experiment on HT29 colon, with KM12 colon, in the experiment on LOX IMVI melanoma and in the experiment with SN12C renal was > 100 µM throughout.
Turning to `Nn1nnc2ccccc21`, the TGI in the experiment on 786-0 renal, with CCRF-CEM leukemia, in the experiment on HOP-92 NSCLC, in the experiment with HT29 colon, with LOX IMVI melanoma and with SK-MEL-5 melanoma was > 100 µM each time. For the same compound, the TGI with SN12C renal is > 100 µM.
For `CC(=O)Oc1ccc2c(c1)O/C(=C\c1ccc(O)cc1)C2=O`, the TGI with 786-0 renal, in the experiment with CCRF-CEM leukemia, in the experiment with KM12 colon, in the experiment on SK-MEL-5 melanoma and in the experiment on SN12C renal was > 100 µM in each case.
